Test results from patent publication US9174916B2, “Compounds and uses thereof for treating inflammation and modulating immune responses” (PURAPHARM COMPANY LIMITED, priority 2009, dated 2015).

Assays:
Type in all cases: cell-based, human
[1] = tested on: p38 MAPK; assay: LPS-induced phosphorylation of p38 MAPK in PBMac, Western blot; conditions: B22EES1-8-3 140 μM for 24 h, then 10 ng/mL LPS for 15 min
Experimental: (§1) FIGS. 6A-6C show the effects of B22EES1-8-3 on LPS-induced phosphorylation (phospho-) of ERK1/2 and p38 MAP kinases, and nuclear translocation of NF-κB p65. PBMac were incubated with B22EES1-8-3 (140 μM) for 24 h prior to the addition of 10 ng/mL LPS for an additional 15 min. Cytoplasmic (A, B) and nuclear (C) proteins were harvested for Western Blotting: (A) Cytoplasmic proteins: phospho-ERK1/2 and total ERK1/2. (B) Cytoplasmic proteins: phospho-p38 and total p38 kinase. (C) Nuclear proteins: upper panel, NF-κB p65 and lamin B; lower panel, the intensity of corresponding lanes in the gel photograph of NF-κB p65 was shown. The results shown are representative of at least three independent experiments, with cells obtained from different donors. * P<0.05, compared with the corresponding control. […]
(§2) Whole cell lysate (20 μg) or nuclear protein (2 μg) were separated by sodium dodecyl sulfate polyacrylamide gel electrophoresis (SDS-PAGE) and transferred to nitrocellulose membranes for probing overnight with the respective antibodies specific for the phosphorylated or total form of ERK1/2 and p38 MAPK (Cell Signaling Technology, Beverly, Mass.), NF-κB p65 protein and lamin B (Santa Cruz Biotechnology, Santa Cruz, Calif.). […] In order to quantify the results from the Western blots, the gels were scanned and the intensity of the bands was analyzed by a computer program Quantity One from BioRad. […]

[2] = tested on: ERK1/2; assay: LPS-induced phosphorylation of ERK1/2 in PBMac, Western blot; conditions: B22EES1-8-3 140 μM for 24 h, then 10 ng/mL LPS for 15 min
Experimental: as §1, §2

[3] = tested on: TNF-α; assay: LPS-induced TNF-α production in primary blood macrophages, ELISA of culture supernatants; conditions: for inhibition of LPS-induced TNF-α protein production: 140 μM B22EES1-8-3 for 24 hr, mean±S.D. of 6 experiments
Experimental: FIGS. 5A-5B show inhibition of LPS-induced TNF-α production by B22EES1-8-3 and dexamethasone. PBMac were incubated with (A) 140 μM B22EES1-8-3 or (B) 1.3 or 5.1 μM dexamethasone (Dex) for 24 hr prior to the addition of 1 ng/mL and 10 ng/mL LPS for another 24 hr. The culture supernatants were collected and assayed for TNF-α by ELISA. The results shown were the mean values±standard derivation (S.D.) of 6 independent experiments, with cells obtained from different donors. * P<0.05, compared with the corresponding control.
Human peripheral blood monocytic cells (PBMC) were isolated from the buffy coat of healthy donor blood supplied by Hong Kong Red Cross by Ficoll-Paque (Amersham Pharmacia Biotech, Piscataway, N.J.) density gradient centrifugation as described in our previous reports^14,15,34. In brief, the buffy coat was spun at 3000 rotations per min (rpm) for 15 min to separate the blood cells and the plasma. The heat inactivated serum was filtered for future use.
The adherent monocytic cells were detached and seeded onto tissue culture plates and incubated for another 7-14 days in order to differentiate the primary blood monocytic cells to primary blood macrophages (PBMac).
Culture supernatants of the LPS-treated PBMac, with or without B22EES1-8-3 pretreatment, were collected at different time intervals and stored at −70° C. The levels of the secreted TNF-α were measured by ELISA kits specific for the cytokine (R&D system, Minneapolis, Minn.).
To confirm the activities of B8-3 in suppressing TNF-α production, B8-3 was incubated with PBMac for 24 hr prior the addition of LPS at concentrations of 1 ng/mL and 10 ng/mL for 24 hr. The culture supernatants were collected and measured by ELISA for the level of secreted TNF-α.
To further compare the efficiency of B8-3 with existing drugs, dexamethasone, a potent immunosuppressive corticosteroid, was used as a prototype. PBMac were treated with dexamethasone for 24 hr prior to the addition of LPS at concentrations of 1 ng/mL and 10 ng/mL for 24 hr.

[4] = tested on: NF-κB p65; assay: LPS-induced nuclear translocation of NF-κB p65 in PBMac, Western blot of nuclear proteins; conditions: B22EES1-8-3 140 μM for 24 h, then 10 ng/mL LPS for 15 min, nuclear fraction
Experimental: as §1, §2

## COc1ccc(/C=C/C(=O)OCC(=O)Cc2ccc(O)c(O)c2)cc1O [B8-3]
[1]
  effect on LPS-induced phosphorylation of p38 MAPK: not p38 MAPK induced by LPS was suppressed
[2]
  effect on LPS-induced phosphorylation of ERK1/2: suppressed
[3]; PBMac, then LPS 1 ng/mL for 24 hr
  inhibition of LPS-induced TNF-α protein production: 47±19%
[3]; PBMac, then LPS 10 ng/mL for 24 hr
  inhibition of LPS-induced TNF-α protein production: 58±30%
[3]; summary statement, FIG. 5A, LPS concentration not stated
  amelioration of LPS-upregulated TNF-α production: over 50%
[4]
  effect on nuclear translocation of NF-κB p65: reduced the amount of p65NF-kB in the nuclear fraction

## C[C@@H]1C[C@H]2[C@@H]3CCC4=CC(=O)C=C[C@]4(C)[C@@]3(F)[C@@H](O)C[C@]2(C)[C@@]1(O)C(=O)CO [dexamethasone, reference compound]
[3]; Homo sapiens, Macrophage, PBMac, dexamethasone 1.3 μM for 24 hr, then LPS (1 and 10 ng/mL used) for 24 hr
  inhibition at 1.3 µM: 32 ± 7.5%
[3]; Homo sapiens, Macrophage, PBMac, dexamethasone 5.1 μM for 24 hr, then LPS (1 and 10 ng/mL used) for 24 hr
  inhibition at 5.1 µM: 25 ± 6.3%
